In this data set the target is T1, 3MST-overexpressing COS7 cells (Mus musculus, UniProt Q99J99).
T1 construct: expressed in transfected cells; host or cells: COS7 (transient)
T1 sequence (Q99J99 1-297): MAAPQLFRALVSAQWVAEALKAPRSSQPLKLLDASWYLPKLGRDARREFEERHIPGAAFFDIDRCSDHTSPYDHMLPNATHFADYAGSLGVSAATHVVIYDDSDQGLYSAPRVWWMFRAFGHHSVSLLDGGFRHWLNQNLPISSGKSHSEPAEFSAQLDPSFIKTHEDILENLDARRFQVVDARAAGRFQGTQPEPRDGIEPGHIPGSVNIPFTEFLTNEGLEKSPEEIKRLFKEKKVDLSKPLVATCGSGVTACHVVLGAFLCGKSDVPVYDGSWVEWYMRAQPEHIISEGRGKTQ
The data set is described as follows: Live-cell fluorescence imaging with SSP4 in 3MST-overexpressing COS7 cells. The data set is classed as cell-based. As for the experimental part:
Figure 2 Selectivity assessment of hit compounds for 3MST over other H2S/polysulfides-producing enzymes and rhodanese. (a) 3MST-Inhibitory activity of hit compounds at 10 and 100 μM in cell lysate of 3MST-expressing HEK293 cells. 100 μM 3MP and 100 μM DTT were added to the solution containing 0.1% DMSO as a cosolvent, and the mixture was incubated at 37 °C for 15 min. H2S production was measured by gas chromatography. All data are presented as the mean ± S.D. (100 μM: n = 3 or 4; 10 μM: n = 3). (b) Selectivity assessment of hit compounds at 100 μM towards CBS and CSE. Only DMSO was added to the control sample instead of DMSO solution containing hit compounds. H2S production was monitored by gas chromatography. All data are presented as the mean (n = 3). (c) Detection method for rhodanese activity (Sörbo method). (d) Selectivity assessment of hit compounds towards rhodanese. The results are mean ± S.D. (n = 4, three times). These values were determined based upon the absorbance of [Fe(SCN)3] at 460 nm (Sӧrbo method). […] (e) Fluorescence confocal microscopic images of live COS7 cells transfected with 3MST or an empty vector[9] as a control. […] F/F0 was calculated by dividing the fluorescence intensity of cells after addition of 500 μM 3MP (10 min) by that of cells before addition of 500 μM 3MP (Pre), then the mean F/F0 was determined from 5 cells. […]

The structures appear in SMILES notation.

Take `Cc1cc(=O)[nH]c(SCC(=O)c2cccc3ccccc23)n1` [compound 3]: for the setting “1 μM compound, 3MST-overexpressing COS7 cells”, the “3MST activity in living cells (SSP4 sulfane sulfur fluorescence after 500 μM 3MP)” value is on record as “almost completely suppressed”. Also, where the note is “concluded from suppression of 3MST activity in live COS7 cells”, the Cell-membrane permeability entry is reported as “cell-membrane permeable”.

For the origin of these results see article PMC5228037, “Discovery and Mechanistic Characterization of Selective Inhibitors of H2S-producing Enzyme: 3-Mercaptopyruvate Sulfurtransferase (3MST) Targeting Active-site Cysteine Persulfide” (Scientific Reports, 2017).
